Key:
MerCreMer/ZEG (M/Z) mice = experiment: Cardiomyocyte replenishment after myocardial infarction, GFP+ / β-Gal+ cardiomyocyte counting; format: in vivo, mouse; conditions: for stem cell-mediated cardiomyocyte reconstitution: aged mice (>18 months), 14 days post-MI
Description: All experiments involving animals were conducted in accordance with the Guide for the Use and Care of Laboratory Animals, and all animal protocols have been approved by National Cheng Kung University. Sca-1^− GFP, B6.Cg-Tg(Ly6a-GFP)G5Dzk/J and EP2^−/−, B6.129-Ptger2^tm/Brey/J mice were obtained from Jackson Laboratory. The double transgenic MerCreMer/ZEG (M/Z) mice were generated by crossbreeding MerCreMer and Z/EG mice (Jackson Laboratory), which have C57BL/6SV129 and C57BL/6J (N7) background strains, respectively. The MerCreMer mice contain a tamoxifen-inducible Cre recombinase fusion protein driven by the cardiomyocyte-specific α-MHC promoter. In Z/EG mice, GFP replace constitutive β-Gal expression after the removal of a LoxP-flanked stop sequence by Cre.
M/Z mice were subjected to experimental myocardial infarction (MI) one month after the last tamoxifen injection. MI was generated by ligating the left anterior descending coronary artery at 2-3 mm distal to the left atrial appendage. For cell transplantation experiments, intramyocardial injections were performed immediately after coronary ligation. A total of 6×10^5 cardiac Sca-1^+ cells were injected per mouse in two divided injections (5 μl/injection). For BrdU labeling, the mice were subcutaneously implanted with osmotic minipump (Alzet) at the time of surgery and 40 μg/μl of BrdU (Sigma) was administrated. For immunohistological studies, mice were sacrificed and the hearts were harvested at different time points following experimental MI surgery. Cardiac performances were assessed by echocardiography at 28 and 56 days after operation using Vevo 770 (Visualsonics, Toronto, Canada).
(§1) To induce Cre recombination to achieve GFP labeling of cardiomyocytes, tamoxifen (Sigma) was dissolved in sunflower oil (Sigma) at a concentration of 5 mg/ml. The tamoxifen solution was injected intraperitoneally into M/Z mice daily at a dosage of 40 μg per 1 g body weight for 14 days, and the same dosage was injected twice daily for short-term labeling using methods known in the art (Laugwitz, K.-L. et al. Nature 433, 647-653 (2005)). All experimental conditions were optimized prior to the PGE2, indomethacin and TGF-β Type I Receptor Kinase Inhibitor II (ALK5 Inhibitor II, ALK5i, Merck) treatments. The mice treated with PGE2 or PGI2 (Vegiopoulos, A. et al. Science 328, 1158-1161 (2010)) (both from Sigma) were injected intraperitoneally with 3.33 ng of drug per 1 g of body weight dissolved in absolute ethanol twice daily. For the indomethacin treatment, mice were fed with water containing indomethacin (Sigma, 15 μg/ml) for different periods of time. The indomethacin-containing water was changed every 3 days. The mice subjected to the celecoxib (Lyons, T. R. et al. Nat. Med. 17, 1109-1115 (2011)) (Sigma) treatment were injected intraperitoneally with 5 μg of drug per 1 g of body weight daily. For ALK5i treatment, aged mice were injected intraperitoneally once per day with 1 μg of drug per 1 g of body weight one day before surgery and continuously until day 10 post-MI. Celecoxib and ALK5i were dissolved in ethanol and DMSO, respectively.
All of the cellular quantifications were performed double-blindly to minimize personal bias. […] For the cardiomyocyte cell counts, 3 sections from each heart, and 2 infarction border zones and 1 remote area from each section were analyzed at a magnification of 200× by light microscopy. Cells with visible sarcomere structures were analyzed, and the average number of cells counted was 171.8±5.8 per photo image. For the small cardiac cell counts, more than five sections from each heart were analyzed at a magnification of 400× using fluorescence microscopy. The average number of cells counted was 17.01±0.99 per photo image, and more than one hundred and fifty cells were analyzed from each heart. As quantification result is the averaged values calculated from the pictures taken from six border zone sections per heart, personal variation has been minimized. […]

[1] = system: cardiomyocyte-depleted small cells; experiment: Culture of cardiomyocyte-depleted small cells, cTnT immunocytochemistry; format: cell-based, mouse; conditions: PGE2 10 μm for three days
Description: Cardiomyocyte-depleted cardiac small cells were prepared as previously described with some modifications (Oh, H. et al. Proc. Natl. Acad. Sci. USA 100, 12313-12318 (2003); and Pfister, O. et al. Circ. Res. 97, 52-61 (2005)). Specifically, instead of using a 70 μm and then a 45 μm strainer to isolate the cardiomyocyte-depleted cardiac small cells, the cells were filtered through a 45 μm strainer directly after enzyme digestion. The minced heart tissue was digested with 0.1% collagenase B (Roche Molecular Biochemicals), 2.4 U/ml dispase II (Roche Molecular Biochemicals) and 2.5 mmol/L CaCl2 at 37° C. for 30 minutes and then filtered through a 45-μm filter. For isolation of cardiac Sca-1^+ cells, the cardiac small cells were incubated with the Phycoerythrin (PE)-conjugated Sca-1^+ antibodies (BD Bioscience) at 4° C. for 30 minutes. The PE-labeled Sca-1^+ cells were then sorted by the magnetic particles against PE (BD Biosciences). Incubation of cardiomyocyte-depleted small cells with anti-Sca-1-PE antibody and magnetic cell sorting were omitted for isolation of Sca-1^+ cells from the Sca-1-GFP transgenic mice. After isolation, the cells were fixed in 2% paraformaldehyde for 20 minutes and followed by 1 hour blocking in PBS with 1% BSA. […]

Sca-1+ cells = experiment: Flow cytometry of Sca-1+/GFP+ cardiac small cells on day 3 post-MI; format: in vivo, mouse; conditions: tamoxifen 80 μg/g per day for 3 days, P<0.001
Description: as §1, with “Celecoxib and ALK5i were dissolved in ethanol and DMSO, respectively.” left out

SMILES: CCCCC[C@H](O)/C=C/C1C(O)CC(=O)C1C/C=C\CCCC(=O)O (stereo partly drawn) [PGE2, (5Z,11α,13E,15S)-7-[3-hydroxy-2-(3-hydroxyoct-1-enyl)-5-oxo-cyclopentyl]hept-5-enoic acid]
- stem cell-mediated cardiomyocyte reconstitution (MerCreMer/ZEG (M/Z) mice; border zone, P<0.01 versus sham or MI): successfully recover
- stem cell-mediated cardiomyocyte reconstitution (MerCreMer/ZEG (M/Z) mice; remote area): not in the remote area
- rescue of cardiomyocyte replenishment compared to indomethacin treatment alone (MerCreMer/ZEG (M/Z) mice; border zone, PGE2 plus indomethacin, P<0.01): about 10%
- increase of cardiomyocyte replenishment compared to the vehicle control (MerCreMer/ZEG (M/Z) mice; border zone, young mice, 3.33 ng per 1 g i.p. twice daily for 14 days, P<0.01): about 9%
- mature sarcomeric structure, as determined by the expression of cTnT [1]: seen
- number of Sca-1+/GFP+ cells (Sca-1+ cells): expanding
